“Also recorded” adds a separate entry of the source.
Tests used:
Format in all cases: in vivo, mice
MDA+HAE = experiment: Lipid peroxide measurement (MDA+HAE) in colon tissue; conditions: group ES: 2.0% v/v ethanol diet + 2.5 mg sesaminol per day oral, 2 weeks; group E highest
Method: Lipid peroxidation is used as an indicator of oxidative stress in cells and tissues; lipid peroxides produce MDA and HAE upon degradation. Therefore, the MDA+HAE level in colon tissue was examined as a marker of lipid peroxidation response.
A colon tissue sample (100 mg) was homogenized in 1 mL of 20 mM phosphate buffered saline (pH of 7.4) with a homogenizer and centrifuged at 3,000× g at 4° C. for 10 minutes. The resulting precipitate was examined for malondialdehyde (MDA) and 4-hydroxyalkenals (HAE) using a lipid peroxide assay kit (Oxford Biomedical Research, Inc.).

HO-1 = experiment: Western blotting of HO-1 in colon tissue; conditions: group ES: 2.0% v/v ethanol diet + 2.5 mg sesaminol per day oral, 2 weeks; group E significantly lower than group C
From the text: Chronic consumption of an excessive amount of ethanol has been reported to increase CYP2E1 and iNOS levels and cause ethanol-induced oxidative stress in the liver and other tissues. The nuclear factor erythroid 2-related factor 2/heme oxygenase-1 (Nrf2/HO-1) system has also been reported to be widely involved in the protection of cells from oxidative damage. Therefore, the expression levels of these proteins (CYP2E1, iNOS, and HO-1) in mouse colon tissue in the four groups (groups C, S, E, and ES) were examined by western blotting (WB).
A colon tissue sample (100 mg) was homogenized in 1 mL of an M-PER mammalian protein extraction reagent (Pierce) containing a diluent of a protease inhibitor cocktail (Nacalai Tesque, Inc.), and the resulting homogenate was centrifuged at 20,000× g at 4° C. for 15 minutes. The protein concentration of the supernatant was measured with a protein assay reagent (Bio-Rad Laboratories, Inc.), and equal amounts of proteins were subjected to SDS-PAGE. Electrophoresed proteins in the gel were transferred to a PVDF membrane, and the membrane was immersed in a blocking reagent (room temperature, overnight). The primary antibody (rabbit polyclonal antibody) was then reacted. […] The band intensities were quantified with ImageJ.

8-OHdG = 8-OHdG level in colon tissue (immunohistochemical staining, ELISA); conditions: group ES: 2.0% v/v ethanol diet + 2.5 mg sesaminol per day oral, 2 weeks, group E highest
From the text: The present inventors have previously reported that chronic oral administration of ethanol to mice increases oxidative stress in colon tissue (NPL 13). Therefore, in order to verify the effect of oral administration of sesaminol on oxidative stress in the colon induced by chronic oral consumption of ethanol, the levels of oxidative stress markers (8-hydroxy-2′-deoxyguanosine (8-OHdG), malondialdehyde (MDA), and 4-hydroxyalkenals (HAE)) were examined in colon tissue of the mice in groups C, S, E, and ES.
The level of 8-OHdG, which is an oxidative stress marker in tissue, was examined by immunohistochemical staining and ELISA.
Immunostained tissue specimens were prepared in the same manner as the method described above, except that the primary antibody was rabbit anti-8-OHdG monocolonal antibody.
A colon tissue sample (50 mg) was homogenized in 1 mL of DNAzol reagent, and the resulting homogenate was centrifuged at 20,000× g at 4° C. for […]. DNA was then isolated from the supernatant by ethanol precipitation and treated with an 8-OHdG assay preparation reagent set (FUJIFILM Wako Pure Chemical
Corporation). Equal amounts of the extracted DNA were used for analysis of the 8-OHdG level using an OxiSelect oxidative DNA damage ELISA kit (Cell Biolabs, Inc.).

LPS = experiment: Plasma LPS level (LAL assay), 2 weeks; conditions: group ES: 2.0% v/v ethanol diet + 2.5 mg sesaminol per day oral, vs group E, higher than group C
From the text: Acetaldehyde, which accumulates during ethanol metabolism, is known to disrupt intestinal tight junctions (TJs) via dissociation of colonic epithelium TJ proteins (ZO-1, occludin, and claudin-1) from the cytoskeleton. […] Therefore, whether oral administration of sesaminol would affect ethanol-induced intestinal barrier dysfunction was examined by analyzing the expression levels of colonic epithelial TJ proteins and the plasma LPS level in the mice in the four groups (groups C, S, E, and ES).
The plasma LPS concentration was measured with a limulus amebocyte lysate (LAL) assay.

[1] = test system: ethanol-induced lesion in mouse liver; experiment: HE or Oil Red O staining of liver sections (ethanol-induced alcoholic steatohepatitis); conditions: group ES: 2.0% v/v ethanol diet + 2.5 mg sesaminol per day oral, 4 weeks; group E significant increase
From the text: Additionally, liver sections of the mice in each group (groups C, E, S, and ES) were stained with HE or Oil Red 0, and observed under a microscope.
Liver tissue samples were each fixed in a 10% v/v neutral formaldehyde solution overnight at room temperature and paraffin-embedded. The liver tissue sections were then stained with HE reagent, and frozen tissue sections were stained with Oil Red O reagent. Each stained specimen was observed under a microscope and subjected to image analysis.

mouse gut microbiota = experiment: Structural analysis of mouse gut microbiota (16S rRNA sequencing); conditions: 4 weeks
Method: Additionally, the gut microbiota structures of the mice in each group (groups C, E, S, and ES) were analyzed.
The mouse gut microbiota 16S rRNA sequencing was outsourced to MyMetagenome Co., Ltd.
Immediately after collection, mouse feces was treated with liquid nitrogen and stored at −80° C. While the fecal samples were frozen, treatment was performed, and the extracted nucleic acids were used as samples for sequence analysis. The measurement was performed using a next-generation sequencer (NGS) (MiniSeq, Illumina, K.K.), and the results of 16S rRNA genes (the V1-V2 region) and sequences of 5,000 reads or more from the extracted nucleic acids were used for analysis. For the analysis of bacterial flora structure, raw sequence data processing and well-known sequence data analysis were performed, and the analysis was clustered at a 96% pairwise identity cutoff for 16S reads. Similarity values were assigned to the phylum and genus categories.

[2] = Body weight and percentage of liver weight relative to body weight, 4 weeks; conditions: mean ±SD
From the text: The liver function and plasma lipid level in the mice in each group were examined by measuring the percentage of the liver weight relative to the body weight, the triglyceride (TG) concentration in the liver, the aspartate aminotransferase (AST) activity in the plasma, the alanine aminotransferase (ALT) activity in the plasma, and the TG concentration in the plasma of the mice in each group.
The body weight of mice fed for 4 weeks were weighed and dissected under anesthesia. The liver was removed and weighed. The weight ratio between the body weight and the liver of each individual was evaluated.

[3] = group S: 2.5 mg sesaminol per day oral, no ethanol, vs group C
[4] = EtOH (2.0% v/v) + Sesaminol group ES

In the case of Oc1cc2c(cc1C1OCC3C(c4ccc5c(c4)OCO5)OCC13)OCO2 (centres unmarked) [Sesaminol], the “MDA+HAE level in colon tissue” value (MDA+HAE) is reported as “next highest value; also recorded: slightly higher than those of group C and group S”, the HO-1 expression level (HO-1) is reported as “recovery of the expression level” and the “8-OHdG level in colon tissue” value (8-OHdG) is reported as “next highest level”. For the same compound, the “plasma LPS level” value (LPS) was “significantly lower than that in group E”, the “lipid droplets in Oil Red O-stained liver tissue” value [1] was “decrease in lipid droplets” and the “bacterial flora structure at the phylum level (abnormalities observed in group E: Tenericutes, Verrucomicrobia, Proteobacteria, Actinobacteria increased)” value (mouse gut microbiota; group ES: 2.0% v/v ethanol diet + 2.5 mg sesaminol per day oral) was “recovered to the same level as group C”. The “relative abundance of the family Lachnospiraceae, the family Ruminococcaceae, and the family Tannerellaceae” value (mouse gut microbiota; group ES: 2.0% v/v ethanol diet + 2.5 mg sesaminol per day oral, group E significant decrease) was “recovered to the same level as that in group C”, the “relative abundance of the family Enterobacteriaceae and the family Streptococcaceae” value (mouse gut microbiota; group ES: 2.0% v/v ethanol diet + 2.5 mg sesaminol per day oral, group E significant increase) was “recovered to the same level as that in group C” and the “obligate anaerobes of the phylum Bacteroidetes and the phylum Firmicutes (short-chain fatty acids-producing bacteria)” value (mouse gut microbiota; [3]) was “increase in obligate anaerobes of the phylum Bacteroidetes and the phylum Firmicutes”. For the same compound, the “short-chain fatty acid-producing bacteria of the family Lachnospiraceae, the family Ruminococcaceae, and the family Tannerellaceae” value (mouse gut microbiota; [3]) was “increased in group S alone compared with group C”, the Body weight [2, 4] was 25.4 ± 1.0 g and the Liver/body weight ratio [2, 4] was 4.04 ± 0.41 g/g, %. For the same compound, the Body weight ([2]; Sesaminol (2.5 mg/d) group S) was 25.9 ± 0.8 g and the Liver/body weight ratio ([2]; Sesaminol (2.5 mg/d) group S) was 3.96 ± 0.55 g/g, %.

Source: patent publication US20240408053A1, “ENTERITIS-SUPPRESSING COMPOSITION” (KOBE GAKUIN EDUCATIONAL FOUNDATION, priority 2021, published 2024)
